From paper PMC9401487 (Clinical Cancer Research, 2021)
“Also recorded” adds a separate entry of the source.

Tested on: patients with advanced solid tumors
Experiment: Phase I safety and tolerability
Type: in vivo, human
[1] = Cohort 3 (N=3), 40 mg BID 10 days + carboplatin
[2] = Cohort 3: 40 mg BID days 4–13 (10 days) + carboplatin AUC5, 3 patients
[3] = Cohort 4 (N=3), 40 mg BID 7 days + carboplatin
[4] = Cohort 4: 40 mg BID days 4–10 (7 days) + carboplatin AUC5, 3 patients
[5] = Cohort 5 (N=8), 60 mg QD 7 days + carboplatin

C[C@@H]1COCCN1c1cc(C2([S@](C)(=N)=O)CC2)nc(-c2cc[nH]c3nccc2-3)n1 [ceralasertib]
TEAE Anemia, Grade ≥3 [1]: 0 patients, n (%)
TEAE Any AE, Grade 1–2 [1]: 1 (33) patients, n (%)
TEAE Any AE, Grade ≥3 [1]: 2 (67) patients, n (%)
TEAE Arthralgia, Grade 1–2 [1]: 0 patients, n (%)
TEAE Arthralgia, Grade ≥3 [1]: 0 patients, n (%)
TEAE Aspartate aminotransferase increased, Grade 1–2 [1]: 0 patients, n (%)
TEAE Aspartate aminotransferase increased, Grade ≥3 [1]: 0 patients, n (%)
TEAE Constipation, Grade 1–2 [1]: 1 (33) patients, n (%)
TEAE Constipation, Grade ≥3 [1]: 0 patients, n (%)
TEAE Contusion, Grade 1–2 [1]: 2 (67) patients, n (%)
TEAE Contusion, Grade ≥3 [1]: 0 patients, n (%)
TEAE Cough, Grade 1–2 [1]: 0 patients, n (%)
TEAE Cough, Grade ≥3 [1]: 0 patients, n (%)
TEAE Decreased appetite, Grade 1–2 [1]: 1 (33) patients, n (%)
TEAE Decreased appetite, Grade ≥3 [1]: 0 patients, n (%)
TEAE Diarrhea, Grade 1–2 [1]: 0 patients, n (%)
TEAE Diarrhea, Grade ≥3 [1]: 0 patients, n (%)
TEAE Dizziness, Grade 1–2 [1]: 0 patients, n (%)
TEAE Dizziness, Grade ≥3 [1]: 0 patients, n (%)
TEAE Dyspnea, Grade 1–2 [1]: 0 patients, n (%)
TEAE Dyspnea, Grade ≥3 [1]: 0 patients, n (%)
TEAE Fatigue, Grade 1–2 [1]: 1 (33) patients, n (%)
TEAE Fatigue, Grade ≥3 [1]: 0 patients, n (%)
TEAE Hypocalcemia, Grade 1–2 [1]: 0 patients, n (%)
TEAE Hypocalcemia, Grade ≥3 [1]: 0 patients, n (%)
TEAE Insomnia, Grade 1–2 [1]: 1 (33) patients, n (%)
TEAE Insomnia, Grade ≥3 [1]: 0 patients, n (%)
TEAE Lower respiratory tract infection, Grade 1–2 [1]: 0 patients, n (%)
TEAE Lower respiratory tract infection, Grade ≥3 [1]: 0 patients, n (%)
TEAE Nausea, Grade 1–2 [1]: 0 patients, n (%)
TEAE Nausea, Grade ≥3 [1]: 0 patients, n (%)
TEAE Neutropenia, Grade 1–2 [1]: 1 (33) patients, n (%)
TEAE Neutropenia, Grade ≥3 [1]: 2 (67) patients, n (%)
TEAE Neutrophil count decreased, Grade 1–2 [1]: 0 patients, n (%)
TEAE Neutrophil count decreased, Grade ≥3 [1]: 0 patients, n (%)
TEAE Platelet count decreased, Grade 1–2 [1]: 1 (33) patients, n (%)
TEAE Platelet count decreased, Grade ≥3 [1]: 0 patients, n (%)
TEAE Pyrexia, Grade 1–2 [1]: 0 patients, n (%)
TEAE Pyrexia, Grade ≥3 [1]: 0 patients, n (%)
TEAE Thrombocytopenia, Grade 1–2 [1]: 1 (33) patients, n (%)
TEAE Thrombocytopenia, Grade ≥3 [1]: 2 (67) patients, n (%)
TEAE Upper respiratory tract infection, Grade 1–2 [1]: 0 patients, n (%)
TEAE Upper respiratory tract infection, Grade ≥3 [1]: 0 patients, n (%)
TEAE Vomiting, Grade 1–2 [1]: 0 patients, n (%)
TEAE Vomiting, Grade ≥3 [1]: 0 patients, n (%)
TEAE White blood cell count decreased, Grade 1–2 [1]: 0 patients, n (%)
TEAE White blood cell count decreased, Grade ≥3 [1]: 0 patients, n (%)
Number of DLTs [2]: no DLTs
SRC decision (tolerability) [2]: declared intolerable; also recorded: Not tolerated
TEAE Abdominal pain, Grade 1–2 [3]: 1 (33) patients, n (%)
TEAE Abdominal pain, Grade ≥3 [3]: 0 patients, n (%)
TEAE Alanine aminotransferase increased, Grade 1–2 [3]: 1 (33) patients, n (%)
TEAE Alanine aminotransferase increased, Grade ≥3 [3]: 0 patients, n (%)
TEAE Anemia, Grade 1–2 [3]: 1 (33) patients, n (%)
TEAE Anemia, Grade ≥3 [3]: 1 (33) patients, n (%)
TEAE Any AE, Grade 1–2 [3]: 0 patients, n (%)
TEAE Any AE, Grade ≥3 [3]: 3 (100) patients, n (%)
TEAE Arthralgia, Grade 1–2 [3]: 0 patients, n (%)
TEAE Arthralgia, Grade ≥3 [3]: 0 patients, n (%)
TEAE Aspartate aminotransferase increased, Grade 1–2 [3]: 0 patients, n (%)
TEAE Aspartate aminotransferase increased, Grade ≥3 [3]: 0 patients, n (%)
TEAE Constipation, Grade 1–2 [3]: 1 (33) patients, n (%)
TEAE Constipation, Grade ≥3 [3]: 0 patients, n (%)
TEAE Contusion, Grade 1–2 [3]: 0 patients, n (%)
TEAE Contusion, Grade ≥3 [3]: 0 patients, n (%)
TEAE Cough, Grade 1–2 [3]: 0 patients, n (%)
TEAE Cough, Grade ≥3 [3]: 0 patients, n (%)
TEAE Decreased appetite, Grade 1–2 [3]: 1 (33) patients, n (%)
TEAE Decreased appetite, Grade ≥3 [3]: 0 patients, n (%)
TEAE Diarrhea, Grade 1–2 [3]: 0 patients, n (%)
TEAE Diarrhea, Grade ≥3 [3]: 0 patients, n (%)
TEAE Dizziness, Grade 1–2 [3]: 1 (33) patients, n (%)
TEAE Dizziness, Grade ≥3 [3]: 0 patients, n (%)
TEAE Dyspnea, Grade 1–2 [3]: 0 patients, n (%)
TEAE Dyspnea, Grade ≥3 [3]: 0 patients, n (%)
TEAE Fatigue, Grade 1–2 [3]: 1 (33) patients, n (%)
TEAE Fatigue, Grade ≥3 [3]: 0 patients, n (%)
TEAE Hypocalcemia, Grade 1–2 [3]: 0 patients, n (%)
TEAE Hypocalcemia, Grade ≥3 [3]: 0 patients, n (%)
TEAE Insomnia, Grade 1–2 [3]: 0 patients, n (%)
TEAE Insomnia, Grade ≥3 [3]: 0 patients, n (%)
TEAE Lower respiratory tract infection, Grade 1–2 [3]: 0 patients, n (%)
TEAE Lower respiratory tract infection, Grade ≥3 [3]: 0 patients, n (%)
TEAE Nausea, Grade 1–2 [3]: 2 (67) patients, n (%)
TEAE Nausea, Grade ≥3 [3]: 0 patients, n (%)
TEAE Neutropenia, Grade 1–2 [3]: 1 (33) patients, n (%)
TEAE Neutropenia, Grade ≥3 [3]: 1 (33) patients, n (%)
TEAE Neutrophil count decreased, Grade 1–2 [3]: 0 patients, n (%)
TEAE Neutrophil count decreased, Grade ≥3 [3]: 1 (33) patients, n (%)
TEAE Platelet count decreased, Grade 1–2 [3]: 0 patients, n (%)
TEAE Platelet count decreased, Grade ≥3 [3]: 0 patients, n (%)
TEAE Pyrexia, Grade 1–2 [3]: 1 (33) patients, n (%)
TEAE Pyrexia, Grade ≥3 [3]: 0 patients, n (%)
TEAE Thrombocytopenia, Grade 1–2 [3]: 0 patients, n (%)
TEAE Thrombocytopenia, Grade ≥3 [3]: 3 (100) patients, n (%)
TEAE Upper respiratory tract infection, Grade 1–2 [3]: 0 patients, n (%)
TEAE Upper respiratory tract infection, Grade ≥3 [3]: 0 patients, n (%)
TEAE Vomiting, Grade 1–2 [3]: 0 patients, n (%)
TEAE Vomiting, Grade ≥3 [3]: 0 patients, n (%)
TEAE White blood cell count decreased, Grade 1–2 [3]: 0 patients, n (%)
TEAE White blood cell count decreased, Grade ≥3 [3]: 1 (33) patients, n (%)
Number of DLTs [4]: a DLT of grade 4 thrombocytopenia and grade 3 neutropenia
SRC decision (tolerability) [4]: declared intolerable; also recorded: Not tolerated
TEAE Abdominal pain, Grade 1–2 [5]: 1 (13) patients, n (%)
TEAE Abdominal pain, Grade ≥3 [5]: 0 patients, n (%)
TEAE Alanine aminotransferase increased, Grade 1–2 [5]: 0 patients, n (%)
TEAE Alanine aminotransferase increased, Grade ≥3 [5]: 1 (13) patients, n (%)
TEAE Anemia, Grade 1–2 [5]: 3 (38) patients, n (%)
TEAE Anemia, Grade ≥3 [5]: 3 (38) patients, n (%)
TEAE Any AE, Grade 1–2 [5]: 4 (50) patients, n (%)
TEAE Any AE, Grade ≥3 [5]: 4 (50) patients, n (%)
